Test [1] has as its target ROCK2 (Homo sapiens, UniProt O75116). The test can be described thus: ROCK2 kinase IC50, HTRF KinEASE-STK S2 kit. It counts as biochemical. Conditions: 2 hours at room temperature. The method, then:
(§1) The kinase IC50 was determined by a commercialized CISBIO kinase detection kit, HTRF KinEASE-STK S2 kit (62ST2PEC). ROCK2 (01-119) employed in the reaction was purchased from Carna Biosciences.
(§2) Before the assay, the following working solutions as needed were formulated with corresponding reagents according to the instruction of the kinase detection kit: 1×kinase buffer, 5×STK-S2 substrate working solution (1.5 μM) and 5×ATP working solution (1.5 μM), 5×ROCK2 kinase working solution, 4×Streptavidin-XL665 working solution, and 4×STK-Ab-Cryptate 2 detection solution. Then the assay was performed according to the following procedure.
(§3) A solution of a compound at a concentration of 10000 nM was prepared with the 1×kinase buffer containing 2.5% DMSO. Gradient dilution of the solution of the compound was performed with the kinase buffer containing DMSO, so as to obtain solutions of a test compound at 9 different concentrations. In addition to wells of test compounds, a positive well (containing all the reagents except the compound) and a negative well (containing all the reagents except the test compound and kinase) were set. Except for the control wells (positive and negative wells), a solution of a test compound (4 μL) was added to each of the reaction wells, and a solution of 2.5% DMSO was added to the control wells. Then the substrate (2 μM, i.e., 2 μL 5×STK-S2 substrate working solution) was added to each of the reaction wells. The 5×ROCK2 kinase working solution (2 μL, containing 1.4 ng ROCK2 kinase) was added to each of the reaction wells except for the negative well, the volume of which was made up with the 1×kinase buffer (2 μL). The 5×ATP working solution (2 μL) was added to each of the reaction wells, and the mixtures were incubated at room temperature for 2 hours. After the kinase reaction was complete, the 4×Streptavidin-XL665 working solution was added to each of the reaction wells, the solutions were mixed, followed by immediate addition of the 4×STK-Ab-Cryptate 2 detection solution (5 μL), and the mixtures were incubated at room temperature for 1 hour. The fluorescence signal was read on ENVISION (Perkinelmer) (excitation wavelength: 320 inn, and emission wavelength: 665 nm and 615 nm). The inhibitory rate in each well was calculated based on the fluorescence intensity value: ER (Emission Ratio)_(fluorescence intensity at 665 nm/fluorescence intensity at 615 nm); inhibitory rate=(ERpositive−ERtest compound)/(ERpositive−ERnegative)*100%. Curves were plotted and fitted to obtain the median inhibitory concentration (IC50) of each teat compound with the PRISM 5.0 software. According to a biological test method similar to the above, the IC50 values of the compounds on ROCK1 were also tested.
In general terms: In TR-FRET formats the signal depends on donor and acceptor labels being close together.

In test [2] the target is ROCK1 (Homo sapiens (Human), UniProt Q13464). Briefly: ROCK1 kinase IC50, biological test method similar to ROCK2 assay. Type of test: biochemical. The procedure: as §1, §2, §3

SMILES strings stand for the structures. Some results are limits rather than exact numbers.

ROCK1, sequence (Q13464 whole entry, species assumed): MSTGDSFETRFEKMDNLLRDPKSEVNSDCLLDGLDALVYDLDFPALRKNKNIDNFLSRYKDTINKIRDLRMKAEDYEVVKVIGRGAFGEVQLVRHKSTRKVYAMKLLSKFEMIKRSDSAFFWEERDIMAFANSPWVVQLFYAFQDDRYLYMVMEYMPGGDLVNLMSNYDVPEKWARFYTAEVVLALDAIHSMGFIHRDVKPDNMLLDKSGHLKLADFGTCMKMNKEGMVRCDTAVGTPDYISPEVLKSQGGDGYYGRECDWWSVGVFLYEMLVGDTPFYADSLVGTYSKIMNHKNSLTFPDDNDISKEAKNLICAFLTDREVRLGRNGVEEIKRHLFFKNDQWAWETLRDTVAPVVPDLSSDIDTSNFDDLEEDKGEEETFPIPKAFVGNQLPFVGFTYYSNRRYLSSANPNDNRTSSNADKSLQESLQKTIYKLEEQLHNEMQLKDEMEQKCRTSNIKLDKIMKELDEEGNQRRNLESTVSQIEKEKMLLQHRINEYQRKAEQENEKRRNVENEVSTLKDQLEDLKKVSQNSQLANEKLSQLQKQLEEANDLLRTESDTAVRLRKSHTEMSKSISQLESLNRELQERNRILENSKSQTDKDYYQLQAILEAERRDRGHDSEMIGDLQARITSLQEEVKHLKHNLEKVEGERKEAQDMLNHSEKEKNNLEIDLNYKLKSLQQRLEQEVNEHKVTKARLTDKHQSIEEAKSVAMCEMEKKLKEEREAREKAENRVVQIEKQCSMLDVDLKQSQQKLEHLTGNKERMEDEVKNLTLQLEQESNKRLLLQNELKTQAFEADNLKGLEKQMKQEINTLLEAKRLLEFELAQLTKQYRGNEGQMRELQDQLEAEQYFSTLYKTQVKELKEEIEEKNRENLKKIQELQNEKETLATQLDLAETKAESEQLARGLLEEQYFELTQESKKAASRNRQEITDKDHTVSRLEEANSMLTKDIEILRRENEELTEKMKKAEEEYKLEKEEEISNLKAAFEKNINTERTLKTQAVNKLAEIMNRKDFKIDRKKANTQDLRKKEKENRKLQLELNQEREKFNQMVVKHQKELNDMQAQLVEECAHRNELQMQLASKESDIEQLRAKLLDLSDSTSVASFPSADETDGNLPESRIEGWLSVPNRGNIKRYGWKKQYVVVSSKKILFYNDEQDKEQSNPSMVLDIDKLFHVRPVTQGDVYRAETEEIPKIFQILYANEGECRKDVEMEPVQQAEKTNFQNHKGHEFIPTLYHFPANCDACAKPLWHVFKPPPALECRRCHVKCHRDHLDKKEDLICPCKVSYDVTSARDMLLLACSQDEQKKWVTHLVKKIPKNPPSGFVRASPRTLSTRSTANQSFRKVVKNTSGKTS
ROCK2, sequence (O75116 whole entry, looked up): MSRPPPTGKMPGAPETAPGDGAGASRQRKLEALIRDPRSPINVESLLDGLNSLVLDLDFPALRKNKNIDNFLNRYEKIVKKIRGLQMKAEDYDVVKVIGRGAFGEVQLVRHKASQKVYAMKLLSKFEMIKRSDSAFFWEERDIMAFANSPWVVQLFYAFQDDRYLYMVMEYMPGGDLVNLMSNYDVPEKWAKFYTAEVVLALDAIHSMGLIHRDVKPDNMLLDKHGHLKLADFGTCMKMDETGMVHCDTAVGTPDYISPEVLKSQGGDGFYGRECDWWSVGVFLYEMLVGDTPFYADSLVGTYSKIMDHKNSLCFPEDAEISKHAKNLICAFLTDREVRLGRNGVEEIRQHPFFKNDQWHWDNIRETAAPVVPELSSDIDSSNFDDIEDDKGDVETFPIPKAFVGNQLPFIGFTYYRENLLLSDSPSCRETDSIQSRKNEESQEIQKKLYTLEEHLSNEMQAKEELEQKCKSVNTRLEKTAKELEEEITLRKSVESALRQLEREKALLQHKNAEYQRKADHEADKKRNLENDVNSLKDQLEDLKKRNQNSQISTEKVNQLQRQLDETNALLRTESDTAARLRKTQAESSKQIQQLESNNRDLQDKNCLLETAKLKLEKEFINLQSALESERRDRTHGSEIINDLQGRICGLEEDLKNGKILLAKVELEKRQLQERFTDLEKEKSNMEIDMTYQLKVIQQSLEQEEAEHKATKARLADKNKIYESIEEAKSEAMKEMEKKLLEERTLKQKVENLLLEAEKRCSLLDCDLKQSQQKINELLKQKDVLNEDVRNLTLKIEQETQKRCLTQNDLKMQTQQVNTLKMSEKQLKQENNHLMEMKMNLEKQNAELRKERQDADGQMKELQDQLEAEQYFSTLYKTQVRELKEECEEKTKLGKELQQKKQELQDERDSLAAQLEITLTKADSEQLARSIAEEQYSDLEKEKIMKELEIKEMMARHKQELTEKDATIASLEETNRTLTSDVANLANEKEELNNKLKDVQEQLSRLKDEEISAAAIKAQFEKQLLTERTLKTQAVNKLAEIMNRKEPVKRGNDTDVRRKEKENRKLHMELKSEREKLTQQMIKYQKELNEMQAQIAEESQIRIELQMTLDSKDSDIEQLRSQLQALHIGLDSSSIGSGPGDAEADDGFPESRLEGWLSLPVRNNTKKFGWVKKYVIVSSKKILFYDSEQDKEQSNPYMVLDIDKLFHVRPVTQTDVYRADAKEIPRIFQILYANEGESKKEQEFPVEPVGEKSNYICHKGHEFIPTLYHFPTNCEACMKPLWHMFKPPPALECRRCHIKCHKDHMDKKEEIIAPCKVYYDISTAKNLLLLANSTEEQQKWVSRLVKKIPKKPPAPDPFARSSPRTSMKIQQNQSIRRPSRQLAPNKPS

By IC50 is commonly meant the midpoint of a concentration-inhibition curve. As to `CC(C)(C)OC(=O)N1CCc2cc(-c3ncc(F)c(Nc4ccc5c(=O)[nH]ccc5c4)n3)ccc2C1` [C24, tert-butyl 6-(5-fluoro-4-((1-oxo-1,2-dihydro-isoquinolin-6-yl)amino)pyrimidin-2-yl)-3,4-dihydro-isoquinolin-2(1H)-carboxylate], the IC50 is 222 nM in test [1] and more than 10 µM in test [2].

Turning to `O=C(CCC(F)(F)F)N1CCc2cc(-c3ncc(F)c(Nc4ccc5c(=O)[nH]ccc5c4)n3)ccc21` [C70, 6-((5-fluoro-2-(1-(4,4,4-trifluoro-butanoyl)indolin-5-yl)pyrimidin-4-yl)amino) isoquinolin-1(2H)-one], the figures for the IC50 in test [1] and in test [2] were 15 nM and more than 10 µM, respectively.

For the compound `O=C1NCCc2cc(Nc3nc(-c4ccc5c(c4)CN(C(=O)N4CC(F)(F)C4)C5)ncc3F)ccc21` [C81, 6-((2-(2-(3,3-difluoro-azetidine-1-carbonyl)isoindolin-5-yl)-5-fluoro-pyrimidin-4-yl)amino)-3,4-dihydro-isoquinolin-1(2H)-one], the IC50 in test [1] was 129 nM; in test [2], more than 10 µM.

For `CC(C)(C)OC(=O)N1Cc2ccc(-c3ncc(F)c(Nc4ccc5c(c4)CCNC5=O)n3)cc2C1` [C76, tert-butyl 5-(5-fluoro-4-((1-oxo-1,2,3,4-tetrahydro-isoquinolin-6-yl)amino)pyrimidin-2-yl) isoindoline-2-carboxylate], the IC50 in test [1] was 49 nM; in test [2] it was more than 10 µM.

`O=C1NCc2cc(Nc3nc(-c4ccc5c(c4)CN(C(=O)OC4CC(F)(F)C4)C5)ncc3F)ccc21` [C30, 3,3-difluoro-cyclobutyl 5-(5-fluoro-4-((1-oxo-isoindolin-5-yl)amino)pyrimidin-2-yl) isoindoline-2-carboxylate]: the figures for the IC50 in test [1] and in test [2] were 216 nM and more than 10 µM, respectively.

As to `CC(C)(C)OC(=O)N1CCc2sc(-c3ncc(F)c(Nc4ccc5c(c4)CCNC5=O)n3)cc2C1` [C42, tert-butyl 2-(5-fluoro-4-((1-oxo-1,2,3,4-tetrahydroisoquinolin-6-yl)amino)pyrimidin-2-yl)-6,7-dihydrothieno[3,2-c]pyridine-5(4H)-carboxylate], the values for the IC50 in test [1] and in test [2] were 31 nM and more than 10 µM, respectively.

Regarding `O=C(C1CC(F)(F)C1)N1Cc2ccc(-c3ncc(F)c(Nc4ccc5c(=O)[nH]cc(Cl)c5c4)n3)cc2C1` [C5, 4-chloro-6-((2-(2-(3,3-difluoroo-cyclobutane-1-carbonyl)isoindolin-5-yl)-5-fluoro-pyrimidin-4-yl)amino) isoquinolin-1(2H)-one], the values for the 50% inhibitory concentration (IC50) in test [1] and in test [2] were 13 nM and more than 10 µM, respectively.

For the compound `CC(OC(=O)N1CCc2sc(-c3nccc(Nc4ccc5c(c4)CCNC5=O)n3)cc2C1)C(F)(F)F` (stereo not shown) [C59, 1,1,1-trifluoropropan-2-yl 2-(4-((1-oxo-1,2,3,4-tetrahydroisoquinolin-6-yl)amino)pyrimidin-2-yl)-6,7-dihydrothieno[3,2-c]pyridine-5(4H)-carboxylate], the 50% inhibitory concentration (IC50) was 33 nM in test [1] and more than 10 µM in test [2].

As for `CC(CC(=O)N1CCc2sc(-c3ncc(F)c(Nc4ccc5c(=O)[nH]ccc5c4)n3)cc2C1)C(F)(F)F` (stereo not shown) [C47, 6-((5-fluoro-2-(5-(4,4,4-trifluoro-3-methylbutanoyl)-4,5,6,7-tetrahydrothieno[3,2-c]pyridin-2-yl)pyrimidin-4-yl)amino)isoquinolin-1(2H)-one], the IC50 was 15 nM in test [1] and more than 10 µM in test [2].

As for `CC(C)(C)OC(=O)N1CCc2cc(-c3ncc(F)c(Nc4ccc5c(=O)[nH]ccc5c4)n3)ccc21` [C17], the half-inhibitory concentration (IC50) in test [1] was 421 nM; in test [2], more than 10 µM.

Regarding `O=C1NCCc2cc(Nc3nc(-c4ccc5c(c4)CN(C(=O)CCC(F)(F)F)C5)ncc3F)ccc21` [C64, 6-((5-fluoro-2-(2-(4,4,4-trifluoro-butanoyl)isoindolin-5-yl)pyrimidin-4-yl)amino)-3,4-dihydro-isoquinolin-1(2H)-one], the IC50 in test [1] was 109 nM; in test [2] it was more than 10 µM.

Turning to `O=C(OC1CCOC1)N1Cc2ccc(-c3ncc(F)c(Nc4ccc5c(=O)[nH]ccc5c4)n3)cc2C1` (stereo not shown) [C19, tetra-hydrofuran-3-yl 5-(5-fluoro-4-((1-oxo-1,2-dihydro-isoquinolin-6-yl)amino)pyrimidin-2-yl) isoindoline-2-carboxylate], the results for the IC50 in test [1] and in test [2] were 25 nM and more than 10 µM, respectively.

For the compound `COCn1c(C(=O)N2CC(F)(F)C2)cc2ccc(-c3nccc(Nc4ccc5c(=O)[nH]ccc5c4)n3)cc21` [C21, 6-((2-(2-(3,3-difluoro-azetidine-1-carbonyl)-1-(methoxy-methyl)-1H-indol-6-yl)pyrimidin-4-yl)amino) isoquinolin-1(2H)-one], the values for the IC50 in test [1] and in test [2] were 108 nM and more than 10 µM, respectively.

For `O=C(C1CC(F)(F)C1)N1Cc2ccc(-c3ncc(F)c(Nc4ccc5c(=O)[nH]ccc5c4)n3)cc2C1` [C8, 6-((2-(2-(3,3-difluoroo-cyclobutane-l-carbonyl)isoindolin-5-yl)-5-fluoro-pyrimidin-4-yl)amino) isoquinolin-1(2H)-one], the values for the half-maximal inhibitory concentration (IC50) in test [1] and in test [2] were 16 nM and more than 10 µM, respectively.

For `CC(C)(C)CC(=O)N1CCc2sc(-c3nccc(Nc4ccc5c(=O)[nH]ccc5c4)n3)cc2C1` [C57, 6-((2-(5-(3,3-dimethylbutanoyl)-4,5,6,7-tetrahydrothieno[3,2-c]pyridin-2-yl)pyrimidin-4-yl)amino)isoquinolin-1(2H)-one], the half-inhibitory concentration (IC50) in test [1] is 16 nM; in test [2], more than 10 µM.

On to `C[C@@H](OC(=O)N1CCc2sc(-c3ncc(F)c(Nc4ccc5c(c4)CCNC5=O)n3)cc2C1)C(F)(F)F` [C65, (R)-1,1,1-trifluoropropan-2-yl 2-(5-fluoro-4-((1-oxo-1,2,3,4-tetrahydroisoquinolin-6-yl)amino)pyrimidin-2-yl)-6,7-dihydrothieno[3,2-c]pyridine-5(4H)-carboxylate], for which the concentration for half-maximal inhibition (IC50) in test [1] was 80 nM; in test [2] it was more than 10 µM.

Take `CC(C)(C)CC(=O)N1Cc2ccc(-c3nccc(Nc4ccc5c(=O)[nH]ccc5c4)n3)cc2C1` [C56, 6-((2-(2-(3,3-dimethyl-butanoyl)isoindolin-5-yl)pryimidin-4-yl)amino) isoquinolin-1(2H)-one]: the results for the IC50 in test [1] and in test [2] were 24 nM and more than 10 µM, respectively.

For the compound `O=C(N1CCc2cc(-c3nccc(Nc4ccc5c(=O)[nH]ccc5c4)n3)ccc2C1)N1CC(F)(F)C1` [C44, 6-((2-(2-(3. 3-difluoro-azetidine-1-carbonyl)-1,2,3,4-tetrahydro-isoquinolin-6-yl)pyrimidin-4-yl)amino) isoquinolin-1(2H)-one], the half-maximal inhibitory concentration (IC50) in test [1] was 57 nM; in test [2], more than 10 µM.

`O=C(OC1CCC1)N1CCc2cc(-c3ncc(F)c(Nc4ccc5c(=O)[nH]ccc5c4)n3)ccc2C1` [C26, cyclobutyl 6-(5-fluoro-4-((1-oxo-1,2-dihydro-isoquinolin-6-yl)amino)pyrimidin-2-yl)-3,4-dihydro-isoquinolin-2(1H)-carboxylate]: the results for the concentration for half-maximal inhibition (IC50) in test [1] and in test [2] were 356 nM and more than 10 µM, respectively.

In the case of `CC(CC(=O)N1Cc2ccc(-c3ncc(F)c(Nc4ccc5c(c4)CCNC5=O)n3)cc2C1)C(F)(F)F` (stereo not shown) [C67, 6-((5-fluoro-2-(2-(4,4,4-trifluoro-3-methyl-butanoyl)isoindolin-5-yl)pyrimidin-4-yl)amino)-3,4-dihydro-isoquinolin-1(2H)-one], the half-inhibitory concentration (IC50) in test [1] was 101 nM; in test [2], more than 10 µM.

The record behind these values is patent US12398118B2, “Rho-associated protein kinase inhibitor, pharmaceutical composition comprising same, and use thereof” (BEIJING TIDE PHARMACEUTICAL CO., LTD., priority 2018, dated 2025).
